Results published in patent US11578043B2, “Salt of delmopinol” (Lundbeck Pharmaceuticals Italy S.p.A., priority 2017, dated 2023).
Structures can show the parent of a compound that is named as a salt.

Legend:
[1] = Dynamic Vapour Sorption (DVS) experiments; type: physicochemical; conditions: DVS at 25° C.; for water / moisture absorbed (change in mass) when humidity is increased to 95%: relative humidity from 30% RH up to 95% RH in steps of 10% RH; for hygroscopicity (in words): up to 95% RH, non-hygroscopic = less than 1.5% moisture absorbed at 95% RH
Method: The DVS experiments depicted in FIGS. 3 and 4 were performed at 25° C. […] In the present context, a “non-hygroscopic” salt of delmopinol indicates a salt wherein less than 1.5% moisture is absorbed when the salt is exposed to 95% RH at 25° C. for example when determined by Dynamic Vapor Sorption (DVS) according to the method of Example 4. Dynamic Vapour Sorption (DVS) experiments were performed for delmopinol HCl and delmopinol citrate using a SMS DVS Advantage 01 changing the relative humidity from 30% RH up to 95% RH in steps of 10% RH.

[2] = XRPD of the salt before and after DVS (solid state change on exposure to humidity); type: physicochemical; conditions: after DVS experiments at 95% RH
Method: The XRPD diffractograms in FIGS. 5 and 6 were obtained using CuKα1 radiation (λ=1.5406 Å). […] The hygroscopicity of delmopinol HCl is reflected in FIG. 4 depicting the DVS diagram obtained at 25° C. by the method described in Example 4. […] These diffractograms were obtained on another instrument.

Row | water / moisture absorbed (change in mass) when humidity is increased to 95% [1] | hygroscopicity (in words) [1] | humidity at which the salt starts absorbing water [1] | change of solid state caused by exposure to humidity (XRPD after DVS vs non-exposed material) [2] | SMILES
1 | less than 1.5% | non-hygroscopic | – | – | CCCC(CCC)CCCC1COCCN1CCO.O=C(O)CC(O)(CC(=O)O)C(=O)O (stereo not drawn) [delmopinol citrate, 2-(3-(4-propylheptyl)morpholino)ethan-1-ol]
2 | about 45% | very hygroscopic | below 50 % humidity | irreversible | CCCC(CCC)CCCC1COCCN1CCO (stereo not drawn) [delmopinol HCl, 2-(3-(4-propylheptyl)morpholino)ethan-1-ol]
